According to paper PMC6085462 (Frontiers in Microbiology, 2018):
“Also recorded” adds a separate entry of the source. Where no end group is shown, it is not given here.

Experiments:
[1] = test system: α-chymotrypsin from bovine pancreas (EC 3.4.21.1); experiment: α-chymotrypsin alone at a final concentration of 8 mg/mL in the intestinal electrolyte solution; conditions: 37°C, up to 120 min
[2] = test system: elastase type IIA from porcine pancreas; experiment: elastase alone in the intestinal electrolyte solution; conditions: 37°C, up to 120 min
[3] = test system: Pancreatin from porcine pancreas; experiment: pancreatin alone at a final concentration of 8 mg/mL in the intestinal electrolyte solution; conditions: 37°C, up to 120 min
pancreatin; trypsin [4] = experiment: static duodenal model: 8% pancreatin, 4% porcine bile, 2 mg/mL trypsin in intestinal electrolyte solution, pH 6.3; conditions: bovine trypsin, 37°C, up to 120 min
pancreatin = pancreatin alone in the intestinal electrolyte solution; conditions: porcine, 37°C, up to 120 min
[5] = test system: elastase type IIA from porcine pancreas (EC 3.4.21.36); experiment: elastase alone at a final concentration of 8 mg/mL in the intestinal electrolyte solution; conditions: 37°C, up to 120 min
pancreatin; trypsin [6] = experiment: Duodenal solution: 8% pancreatin, 4% porcine bile solutions and 2 mg/mL trypsin solution in intestinal electrolyte solution adjusted to pH 6.3; conditions: 37°C, up to 120 min
pepsin; lipase = experiment: TIM-1 gastric compartment: simulated gastric secretions containing pepsin (0.19 mg/mL) or lipase (0.25 mg/mL) in an electrolyte solution, pH 4.5 decreased gradually to 1.7; conditions: up to 60 min
[7] = ref Kheadr et al., 2010; cited from earlier work
Excerpt: A bacteriocin is most often defined as a peptide of molecular mass mostly <10,000 Da that is inhibitory to species closely related to the producer species. Bacteriocins differ from antibiotics in being synthesized by translation of an mRNA transcript, having generally a narrow spectrum of activity and being effective at concentrations as low as nanomolar ([Nes, 2011]). Some bacteriocins may undergo post-translational modifications and as such belong to the family of ribosomally-synthesized and post-translationally-modified peptides (RiPPs) ([Arnison et al., 2013]) Their potential as antimicrob ...

| cleaved bond (pepsin; lipase) | Substance | cleaved bond [1] | cleaved bond [2] | cleaved bond [3] | cleaved bond (pancreatin; trypsin [4]) | cleaved bond (pancreatin) | cleaved bond [5] | cleaved bond (pancreatin; trypsin [6]) | Antibacterial activity in the small intestine under gastrointestinal conditions [7] |
| --- | --- | --- | --- | --- | --- | --- | --- | --- | --- |
| G14-T15, 60 min | GGAGHVPEYFVGIGTPISFYG | Y9-F10, major, 0 min; also recorded: F10-V11, 0 min | F10-V11, 0 min; also recorded: I13-G14, 0 min; also recorded: Y9-F10, 0 min | V11-G12, 0 min; also recorded: Y9-F10, major, 0 min; also recorded: F10-V11, 0 min; also recorded: I13-G14, 0 min | I13-G14, 60 min; also recorded: F10-V11, 60 min; also recorded: Y9-F10, 60 min; also recorded: Y9-F10, 120 min; also recorded: V11-G12, 120 min | F10-V11, 0 min; also recorded: Y9-F10, 0 min; also recorded: I13-G14, 0 min | F10-V11, 0 min; also recorded: I13-G14, major, 0 min; also recorded: Y9-F10, 0 min; also recorded: V11-G12, 0 min | Y9-F10, first_seen, 0 min; also recorded: F10-V11, first_seen, 0 min; also recorded: I13-G14, first_seen, 0 min; also recorded: G12-I13, 60 min; also recorded: V11-G12, 60 min | – |
| – | pediocin PA-1 (KYYGNGVTCGKHSCSVDWGKATTCIINNGAMAWATGGHQGNHKC; ends and bridges not checked; cysteine pairing not given here; UniProt P29430 19-62, looked up) [class IIa bacteriocin] | – | – | – | – | – | – | – | losing completely its antibacterial activity |
